Laboratory results from PubChem BioAssay AID1963425 (Molecular Pharmacology Branch, DTP, NCI, 2024).
Where “and” joins values, the source holds several entries; their conditions need not be identical. Equal values may be shown once.

System: 323965-272-R-J2-PDC complex spheroid growth, % test/control
Experiment: Anticancer human tumor 323965-272-R-J2-PDC patient-derived pancreatic carcinoma cell line growth inhibition [Asc]
Conditions: for viability, T/C: stronger effect = lower value
In short: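 Spheroid model: tumor line + HUVEC + hMSC. Single agents and combinations; top conc. at/near clinical Cmax (10 microM if undetermined), half-log dilutions. DMSO stocks at 800-fold test concentration.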
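Also: compound exposure lasted 7 days starting three days after spheroid seeding.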
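For viability, T/C in this document: 100% = DMSO vehicle control wells with viability set relative to vehicle.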

## CNC(C)C(=O)NC1CN(S(=O)(=O)c2cccc(S(=O)(=O)N3CCC4CCC(C(=O)NC(c5ccccc5)c5ccccc5)N4C(=O)C(NC(=O)C(C)NC)C3)c2)CCC2CCC(C(=O)NC(c3ccccc3)c3ccccc3)N2C1=O (stereo not drawn) + Cc1c(S(C)(=O)=O)c(-c2cc(F)cc(N3CCN(c4ccc(NS(=O)(=O)c5ccc(NC(CCN6CCC(C(=O)OCCCP(=O)(O)O)CC6)CSc6ccccc6)c(S(=O)(=O)C(F)(F)F)c5)cc4)CC3)c2)c(-c2ccc(Cl)cc2)n1C(C)C
Curve of first compound, second compound 0.0316 µM
  IC50: > 1000 nM
Curve of first compound, second compound 0.1 µM
  IC50: > 1000 nM
Curve of first compound, second compound 0.316 µM
  IC50: 878 nM
Curve of first compound, second compound 1 µM
  IC50: 745 nM
Curve of first compound, second compound 3.16 µM
  IC50: 569 nM
Curve of first compound, second compound 10 µM
  IC50: 324 nM
Second compound 0.0316 µM, first compound 0.00316 µM
  viability, T/C: 106%
Second compound 0.0316 µM, first compound 0.01 µM
  viability, T/C: 119%
Second compound 0.0316 µM, first compound 0.0316 µM
  viability, T/C: 96.3%
Second compound 0.0316 µM, first compound 0.1 µM
  viability, T/C: 103%
Second compound 0.0316 µM, first compound 0.316 µM
  viability, T/C: 99.3%
Second compound 0.0316 µM, first compound 1 µM
  viability, T/C: 58.4%
Second compound 0.1 µM, first compound 0.00316 µM
  viability, T/C: 107%
Second compound 0.1 µM, first compound 0.01 µM
  viability, T/C: 96.6%
Second compound 0.1 µM, first compound 0.0316 µM
  viability, T/C: 98.2%
Second compound 0.1 µM, first compound 0.1 µM
  viability, T/C: 107%
Second compound 0.1 µM, first compound 0.316 µM
  viability, T/C: 93%
Second compound 0.1 µM, first compound 1 µM
  viability, T/C: 54.1%
Second compound 0.316 µM, first compound 0.00316 µM
  viability, T/C: 96.9%
Second compound 0.316 µM, first compound 0.01 µM
  viability, T/C: 90.1%
Second compound 0.316 µM, first compound 0.0316 µM
  viability, T/C: 90.8%
Second compound 0.316 µM, first compound 0.1 µM
  viability, T/C: 86.1%
Second compound 0.316 µM, first compound 0.316 µM
  viability, T/C: 93.4%
Second compound 0.316 µM, first compound 1 µM
  viability, T/C: 44.7%
Second compound 1 µM, first compound 0.00316 µM
  viability, T/C: 90.2%
Second compound 1 µM, first compound 0.01 µM
  viability, T/C: 85.7%
Second compound 1 µM, first compound 0.0316 µM
  viability, T/C: 85.7%
Second compound 1 µM, first compound 0.1 µM
  viability, T/C: 76.7%
Second compound 1 µM, first compound 0.316 µM
  viability, T/C: 83%
Second compound 1 µM, first compound 1 µM
  viability, T/C: 38.8%
Second compound 3.16 µM, first compound 0.00316 µM
  viability, T/C: 79.8%
Second compound 3.16 µM, first compound 0.01 µM
  viability, T/C: 70.9%
Second compound 3.16 µM, first compound 0.0316 µM
  viability, T/C: 64%
Second compound 3.16 µM, first compound 0.1 µM
  viability, T/C: 75.8%
Second compound 3.16 µM, first compound 0.316 µM
  viability, T/C: 72%
Second compound 3.16 µM, first compound 1 µM
  viability, T/C: 29%
Second compound 10 µM, first compound 0.00316 µM
  viability, T/C: 77.4%
Second compound 10 µM, first compound 0.01 µM
  viability, T/C: 80.1%
Second compound 10 µM, first compound 0.0316 µM
  viability, T/C: 65.8%
Second compound 10 µM, first compound 0.1 µM
  viability, T/C: 59.8%
Second compound 10 µM, first compound 0.316 µM
  viability, T/C: 57%
Second compound 10 µM, first compound 1 µM
  viability, T/C: 22.6%

## NC1CCC(NC2CC2c2ccccc2)CC1 (stereo not drawn) + CCN1C(C(=O)NC23CCC(C(=O)O)(CC2)CC3)C(c2cccc(Cl)c2F)C2(C(=O)Nc3cc(Cl)ccc32)C12CCCCC2
Curve of first compound, second compound 0.00949 µM
  IC50: > 100 nM
Curve of first compound, second compound 0.03 µM
  IC50: > 100 nM
Curve of first compound, second compound 0.0949 µM
  IC50: > 100 nM
Curve of first compound, second compound 0.3 µM
  IC50: > 100 nM
Curve of first compound, second compound 0.949 µM
  IC50: > 100 nM
Curve of first compound, second compound 3 µM
  IC50: > 100 nM
Second compound 0.00949 µM, first compound 0.000316 µM
  viability, T/C: 98.9%
Second compound 0.00949 µM, first compound 0.001 µM
  viability, T/C: 94.2%
Second compound 0.00949 µM, first compound 0.00316 µM
  viability, T/C: 94.8%
Second compound 0.00949 µM, first compound 0.01 µM
  viability, T/C: 97.5%
Second compound 0.00949 µM, first compound 0.0316 µM
  viability, T/C: 98.2%
Second compound 0.00949 µM, first compound 0.1 µM
  viability, T/C: 88.2%
Second compound 0.03 µM, first compound 0.000316 µM
  viability, T/C: 97.3%
Second compound 0.03 µM, first compound 0.001 µM
  viability, T/C: 99.5%
Second compound 0.03 µM, first compound 0.00316 µM
  viability, T/C: 103%
Second compound 0.03 µM, first compound 0.01 µM
  viability, T/C: 102%
Second compound 0.03 µM, first compound 0.0316 µM
  viability, T/C: 97.9%
Second compound 0.03 µM, first compound 0.1 µM
  viability, T/C: 92.8%
Second compound 0.0949 µM, first compound 0.000316 µM
  viability, T/C: 116%
Second compound 0.0949 µM, first compound 0.001 µM
  viability, T/C: 91%
Second compound 0.0949 µM, first compound 0.00316 µM
  viability, T/C: 104%
Second compound 0.0949 µM, first compound 0.01 µM
  viability, T/C: 99.9%
Second compound 0.0949 µM, first compound 0.0316 µM
  viability, T/C: 101%
Second compound 0.0949 µM, first compound 0.1 µM
  viability, T/C: 88.9%
Second compound 0.3 µM, first compound 0.000316 µM
  viability, T/C: 99.6%
Second compound 0.3 µM, first compound 0.001 µM
  viability, T/C: 94.2%
Second compound 0.3 µM, first compound 0.00316 µM
  viability, T/C: 101%
Second compound 0.3 µM, first compound 0.01 µM
  viability, T/C: 96.8%
Second compound 0.3 µM, first compound 0.0316 µM
  viability, T/C: 99.7%
Second compound 0.3 µM, first compound 0.1 µM
  viability, T/C: 88.3%
Second compound 0.949 µM, first compound 0.000316 µM
  viability, T/C: 102%
Second compound 0.949 µM, first compound 0.001 µM
  viability, T/C: 95.5%
Second compound 0.949 µM, first compound 0.00316 µM
  viability, T/C: 94.8%
Second compound 0.949 µM, first compound 0.01 µM
  viability, T/C: 92.5%
Second compound 0.949 µM, first compound 0.0316 µM
  viability, T/C: 106%
Second compound 0.949 µM, first compound 0.1 µM
  viability, T/C: 96%
Second compound 3 µM, first compound 0.000316 µM
  viability, T/C: 98.6%
Second compound 3 µM, first compound 0.001 µM
  viability, T/C: 88.3%
Second compound 3 µM, first compound 0.00316 µM
  viability, T/C: 90.2%
Second compound 3 µM, first compound 0.01 µM
  viability, T/C: 97.2%
Second compound 3 µM, first compound 0.0316 µM
  viability, T/C: 96.4%
Second compound 3 µM, first compound 0.1 µM
  viability, T/C: 87.7%

## NC(=O)C(=Cn1cnc(-c2cc(C(F)(F)F)cc(C(F)(F)F)c2)n1)c1cncnc1
Compound 0.000949 µM
  viability, T/C: 105% and 108% and 73.8%
Compound 0.003 µM
  viability, T/C: 91.3% and 106% and 96.3%
Compound 0.00949 µM
  viability, T/C: 101% and 105% and 88.4%
Compound 0.03 µM
  viability, T/C: 93.7% and 89% and 82.1%
Compound 0.0949 µM
  viability, T/C: 86.4% and 80.2% and 77.3%
Compound 0.3 µM
  viability, T/C: 57.8% and 57% and 75.2%
Curve of compound
  IC50: > 300 nM

## NC1CCC(NC2CC2c2ccccc2)CC1 (stereo not drawn)
Compound 0.000316 µM
  viability, T/C: 97.5% and 97% and 94.2%
Compound 0.001 µM
  viability, T/C: 105% and 97.8% and 90%
Compound 0.00316 µM
  viability, T/C: 102% and 98.4% and 89.8%
Compound 0.01 µM
  viability, T/C: 101% and 97.8% and 90.7%
Compound 0.0316 µM
  viability, T/C: 120% and 103% and 94%
Compound 0.1 µM
  viability, T/C: 110% and 90.2% and 92.5%
Curve of compound
  IC50: > 100 nM
